# Tested on: rats
# Test: Behavioural sensitization to amphetamine (motor hyperactivity measured by actimetry)
# Details: amphetamine 0.5 mg/kg IP, ginkgolide A 5 mg/kg per day oral
smiles,measurement,value
C[C@@H]1C(=O)O[C@H]2C[C@@]34[C@H]5C[C@@H](C(C)(C)C)[C@]36[C@@H](OC(=O)[C@@H]6O)O[C@@]4(C(=O)O5)[C@]21O [ginkgolide A],behavioural sensitization to amphetamine,reduced
